Reference: US9517200B2, “Methods of delivering pharmaceutical agents” (Massachusetts Eye and Ear Infirmary, priority 2011, dated 2016)

System: 6-hydroxydopamine (6-OHDA) injury Parkinson's Disease mouse model
Test: Apomorphine-induced rotational behavior in unilateral striatal 6-OHDA injury mice
Type: in vivo
Details: intraperitoneal injection, 300 μL, 0.065 mg/mL, two weeks post-injury
Protocol: The details of these experiments are described below.
The mice underwent unilateral striatal 6-hydroxydopamine (6-OHDA) injection (3.2 μg/μL, 0.5 μL/min) according to Francardo et al. (Neurobiol. Dis. 42:327-340, 2011). […] The placement of a SEM graft over the skull of the mice was performed as described above. The duration of rotational behavior was determined in the treated mice.
The position of the mice was recorded by a camera (while they move freely in an arena). The number of contralateral rotations per minute was quantified using a custom analysis program written in Matlab and C++. Statistical analyses were performed using a Student's t-test to compare results between treatment groups (Stata v6.0).

CN1CCc2cccc3c2[C@H]1Cc1ccc(O)c(O)c1-3 [apomorphine]
rotational behavior (contralateral turns per minute): increased
